Results reported in paper PMC8582824, “Targeting DDX3X Helicase Activity with BA103 Shows Promising Therapeutic Effects in Preclinical Glioblastoma Models” (Cancers, 2021).
Read-outs that look alike come from different tables or passages of the source.

How the values were obtained:
U87 cells xenograft = test: Subcutaneous U87 xenograft model of GBM; format: in vivo, CD1 nude mice; details: 50 mg/kg i.p.
Procedure: Male CD1 nude mice (Charles River, Milan, Italy) were maintained under the guidelines established by our Institution (University of L’Aquila), complying with the Declaration of Helsinki, national and international laws and policies (European Economic Community Council Directive 86/609; Italian Legislative Decree 4.03.2014 n.26, Gazzetta Ufficiale della Repubblica Italiana no. 61, 4 March 2014). Before any invasive manipulation, mice were anesthetized with a mixture of ketamine (25 mg/mL)/xylazine (5 mg/mL). Tumor grafts were obtained by injecting s.c. 1 × 10^6 U87 cells in 100 µL of 12 mg/mL Matrigel (Becton Dickinson, Franklin Lakes, NJ, USA). Tumor growth was monitored daily by measuring the average tumor diameter, and mice were divided into experimental groups when the tumor reached a volume of approximately 50 mm^3. The tumor volume was calculated according to the formula 4/3πr^3, with r representing the […]. BA103 was administered i.p. in a saline solution containing 10% v/v DMSO and 10% v/v TWEEN 80. Each mouse received 50 mg/kg BA103, or vehicle, three times per week. Previous experiments with the same settings have permitted choosing the endpoint of 21 days considering the maximum mean volume of tumors in control mice that was compatible with no signs of distress. […]
Next, we tested our compound on U87 cells in a xenograft model of GBM. […] During the experiment, tumor growth was monitored measuring tumor volume, and at the end point, 21 days after the start point, mice were euthanized, and tumors were recovered and measured. […] Tumor masses were also analyzed for the expression of DDX3X, and all xenografts resulted positive for DDX3X expression, from both control and treated groups, with a spotted staining pattern (Figure 9D).
Figure 9 Biological activity of BA103 in xenograft models of GBM. […] Tumor growth was monitored by measuring tumor volume (B), and at the end point, tumors were weighed, and the resulting mean values for each group are reported in the histogram (C). […] Mice were monitored for two months after U87 cells inoculation.

HN6 = test: MTS cytotoxicity assay, HN6 cells; format: cell-based; details: HN6, 72 h
Procedure: For CellTiter 96® Aqueous One Solution Cell Proliferation Assay (MTS) (Promega, Madison, WI, USA), cells were seeded at 5 × 10^3 per well in 96-well plates in quadruplicate together a control with no cells to evaluate the background. After 24 h, the culture medium was removed, and fresh medium containing increasing concentrations of chemical compounds was added to cells. The fixed final concentrations were 0.1 μM, 1 μM, 10 μM, and 100 μM. DMSO was the vehicle used for dilution of the compounds, and its final concentration on cells was less than 0.2%. Medium-only containing wells were included as controls. […] After 3 h at 37 °C in a humidified, 5% CO2 atmosphere, the absorbance at 492 nm was recorded using an EZREAD400 (Biochrom, Cambridge, United Kingdom) plate reader. The average 490 nm absorbance from the “no cell” control wells was subtracted from all other values to yield background-corrected absorbance. Dose–response curves and CC50 values have been calculated by plotting the absorbance data as a function of inhibitor concentrations and fitting the data by least-squares nonlinear regression, according to the method of Marquardt–Levenberg, with the computer program GraphPad Prism 6.0.
Cells were incubated with a scalar concentration of DDX3X inhibitors, and after 72 h of treatment, cell viability was assessed by cytotoxicity assay. […]

[1] = PK and biodistribution in BALB/c mice; format: in vivo; details: for half-life: 50 mg/kg
Procedure: Figure 8 PK and biodistribution of BA103 in BALB/c mice at the single dose of 50 mg/kg i.p. (A) Plasmatic distribution and PK parameters. Concentration levels ± SD of BA103 in (B) kidneys, (C) liver, and (D) brain. TEXT PRINTED IN THE PICTURE: (A) no label printed: t1/2 (min): 299.6; Cmax (μg/ml): 18.2; AUC 0-t (μg/ml*min): 1817.6; AUC 0-inf_obs (μg/ml*min): 1850.7; Vz/F_obs ((mg/kg)/(μg/ml)): 11.7; Cl/F_obs ((mg/kg)/(μg/ml)/min): 0.1 DOUBTS OF THE COPYIST ABOUT THIS PICTURE: Panel A table: the picture prints no substance label / Panel A table, Vz/F_obs and Cl/F_obs: the underscore may be hidden by the table line (could be 'Vz/F obs', 'Cl/F obs')
Thus, preliminary PK and biodistribution studies were performed on two groups of BALB/c mice (CTRL and BA103-treated) at the single intraperitoneal (i.p.) dose of 50 mg/kg. BA103 was slowly eliminated from plasma, with a half time (t1/2) of about 5 h. […] Even if the PK analysis was conducted in healthy mice, with an intact BBB, the data are of great importance, since the majority of drugs are unable to reach the tumor environment due to their low permeability.

[2] = BALB/c, mouse, ip, plasma, single dose 50 mg/kg i.p.

signs of distress in the receiving animal (U87 cells xenograft; two consecutive weeks): absence of any visible sign of distress | AUC(0-t) [1, 2]: 30300 ng·h/mL | Cmax [1, 2]: 18200 ng/mL | AUC(0-inf) ([1]; BALB/c, mouse, ip, plasma, single dose 50 mg/kg i.p., read-out: AUC 0-inf_obs (converted)): 30800 ng·h/mL | half-life ([1]; BALB/c, mouse, plasma, ip, plasma, single dose 50 mg/kg i.p., read-out: t1/2): 4.99 h | half-life ([1]; BALB/c, mouse, plasma, ip, single dose 50 mg/kg i.p., read-out: half time (t1/2) of elimination from plasma (converted)): ~5 h | CL/F ([1]; BALB/c, mouse, plasma, ip, single dose 50 mg/kg i.p.): 100 mL/min/kg | Vd/F ([1]; BALB/c, mouse, plasma, ip, single dose 50 mg/kg i.p., read-out: Vz/F_obs): 11.7 L/kg | brain distribution / blood–brain barrier crossing ([1]; healthy mice, 50 mg/kg i.p.): ability to cross the blood–brain barrier
SMILES: CCCCc1cn(-c2ccc(NC(=O)Nc3ccccc3C(F)(F)F)cc2)nn1 [BA103, 1-(4-(4-Butyl-1H-1,2,3-triazol-1-yl)phenyl)-3-(2-(trifluoromethyl)phenyl)urea]
tumor growth (tumor volume) vs control (U87 cells xenograft; from the second week): reduction in tumor growth was evident | reduction of mean tumor mass with respect to control group (U87 cells xenograft; three times per week for two weeks, end point 21 days): ~60% | CC50 (HN6): low micromolar range
